Source: publication PMC4063695, “Design of Embedded-Hybrid Antimicrobial Peptides with Enhanced Cell Selectivity and Anti-Biofilm Activity” (PLoS ONE, 2014)
No end group written: not given here.

Tests used:
[1] = test system: E. coli ATCC25922; test: Kinetics of bacterial killing; assay type: cell-based, Escherichia coli; details: 1× MIC, within 30 min, 37°C, PBS; mean of three repeats
Protocol: Kinetics of the bacterial killing was measured by using E. coli ATCC25922 in logarithmic phase (10^8 CFU/mL). The above bacteria were diluted to 1/1000 with PBS, and 500 µL solutions was added with 500 µL PBS at different final concentrations (1/4, 1/2 and 1 × MIC). The solutions were incubated for 0.5 min, 1 min, 2.5 min, 5 min, 10 min, 20 min, and 40 min at 37°C. The moderately diluted samples were plated on nutrient agar plate (MHA). The bacterial colonies were counted after incubation for 18 h at 37°C. The results were determined and presented as the mean of three repeats.

[2] = test system: human red blood cells (hRBC); test: Hemolytic activity; assay type: cell-based; details: minimum concentration that caused 5% hemolysis of hRBC (footnote); 1% hRBC in PBS pH 7.4, 1 h, 37°C, OD 492 nm
Protocol: The amount of released hemoglobin by the lysis of erythrocytes was measured for hemolytic activity of peptides. Human erythrocytes were obtained from a healthy donor with written informed consent. The experimental protocol was reviewed and approved by the ethics committee of the Northeast Agricultural University Hospital. The measurement was based on a previously described method. The fresh hRBCs were washed three times by centrifugation (1000 g, 5 min, 4°C) in PBS (pH 7.4), and then resuspended in PBS to obtain the erythrocyte with a dilution of approximately 1% (v/v). Then, 50 µL of hRBCs solution was incubated with 50 µL of different concentrations of the peptides dissolved in PBS for 1 h at 37°C, before centrifugation (1000 g, 5 min, 4°C) again. The absorbance of the supernatants was measured at optical density (OD) 492 nm. […] The control samples for 0% and 100% hemolysis consisted of hRBCs in PBS (Ablank) only and in 0.1% Triton X-100 (Atriton), respectively. The percentage of hemolysis was calculated according to the following equation: [drawing 3]

[3] = Circular dichroism, secondary structure; assay type: physicochemical; details: 150 µM peptide, 25°C, from [θ]222
Protocol: The CD spectra were measured with a CD spectropolarimeter (Jasco, J-820, Tokyo, Japan) at 25°C, using a 0.1 cm path length rectangular quartz cell. The spectra were recorded at between 190 and 250 nm at 10 nm/min scanning speed. At least three scans were conducted for each peptide sample.
The acquired CD spectra were converted to the mean residue ellipticity through the following equation: [drawing 1]
where θM is the mean residue ellipticity [deg.cm2.dmol-1], θobs is the observed ellipticity corrected for the buffer at a given wavelength [mdeg], c is the peptide concentration [mM], l is the path length [mm], and n is the number of amino acids.
The percentage of α-helical structure was calculated as followings: [drawing 2]
where [θ]222 is the experimentally observed mean residue ellipticity at 222 nm, and values for [θ]^0 and [θ]^100 which correspond to 0 and 100% a-helix content at 222 nm, are estimated to be −2000 and −32000, respectively, [29].

[4] = test system: P. aeruginosa ATCC27853; test: MIC in the presence of physiological salts; assay type: cell-based, Pseudomonas aeruginosa; set-up: unit not given here
Excerpt: (§1) E. coli ATCC25922, P. aeruginosa ATCC27853, S. aureus ATCC29213, S. epidermidis ATCC12228, S. faecalis ATCC29212 and B. subtilis CMCC63501 were obtained from the College of Veterinary Medicine, Northeast Agricultural University (Harbin, China), E. coli K88, E. coli CVCC1515 and P. aeruginosa ATCC15442 were bestowed by Prof. J.H. Wang (Gene Engineering Laboratory, Feed Research Institute, Chinese Academy of Agricultural Sciences Beijing, China) and E. coli UB1005 was kindly provided by Prof. Q.S. Qi (State Key Laboratory of Microbial Technology, Shandong University, China). […] Briefly, 50 µl of approximate 0.5–1 × 10^6 colony forming units (CFU)/ml of cells were diluted in Mueller-Hinton broth and distributed to 96-well plate, 50 µl of twofold peptides were added and the plates was incubated at 37°C for 18–24 h. The MIC values were calculated as the lowest peptide concentration that prevented visible turbidity and negative control of the pure broth without microbes. The tests were performed at least three times in duplicate.
(§2) The stability of peptides was tested in the MIC assay in different environments, including salt sensitivity, human serum, thermal stability and susceptibility to enzymes. For salt sensitivity, 0.5–1 × 10^6 CFU/ml of P. aeruginosa ATCC27853 and E. coli ATCC25922 were treated with peptides, while different salts were added to MHB, and the final concentrations of physiological salts were as follows: 150 mM NaCl, 4.5 mM KCl, 1 mM MgCl2, 6 µM NH4Cl, 8 µM ZnCl2, 4 µM FeCl3 and […] [33]. Except salt sensitivity, only E. coli ATCC25922 was treated with peptides. […] For testing peptide sensitivity to the proteolytic enzymes, the peptides were incubated in advance at 37°C for 1 h with a 1 mg/ml final concentration of the proteolytic enzymes (trypsin, pepsin, papain and proteinase K). For testing thermal stability, incubation occurred at 100°C for 1 h. After these treatments, the procedures were same as MIC assay described above.

[5] = test system: E. coli ATCC25922; test: MIC in the presence of physiological salts; assay type: cell-based, Escherichia coli; set-up: unit not given here
Excerpt: as §1, §2

[6] = all kinds of salts in physiological concentrations

For RFRRLFRIRVRVLKKI-NH2 [R-FV-I16], the “reduction of colony count” value [1] was 99%, the MHC [2] was 128 µM and the α-helical content ([3]; 30 mM SDS) was 36%. For the same substance, the α-helical content ([3]; 50% TFE) was 69%, the “MIC, CaCl2” value ([4]; 2.5 µM CaCl2 in MHB) was 4 and the “MIC, FeCl3” value ([4]; 4 µM FeCl3 in MHB) was 4. For the same substance, the “MIC, NH4Cl” value ([4]; 6 µM NH4Cl in MHB) was 4, the “MIC, ZnCl2” value ([4]; 8 µM ZnCl2 in MHB) was 4 and the “MIC, MgCl2” value ([4]; 1 mM MgCl2 in MHB) was 8. The “MIC, KCl” value ([4]; 4.5 mM KCl in MHB) was 4, the “MIC, NaCl” value ([4]; 150 mM NaCl in MHB) was 4 and the “MIC, Mix” value [4, 6] was 16. For the same substance, the “MIC, Control” value ([4]; no added salts, unit not given) was 4, the “MIC, FeCl3” value ([5]; 4 µM FeCl3 in MHB) was 1 and the “MIC, NH4Cl” value ([5]; 6 µM NH4Cl in MHB) was 1. For the same substance, the “MIC, ZnCl2” value ([5]; 8 µM ZnCl2 in MHB) was 1, the “MIC, MgCl2” value ([5]; 1 mM MgCl2 in MHB) was 4 and the “MIC, KCl” value ([5]; 4.5 mM KCl in MHB) was 1. For the same substance, the “MIC, NaCl” value ([5]; 150 mM NaCl in MHB) was 4, the “MIC, Mix” value [5, 6] was 8 and the “MIC, CaCl2” value ([5]; in MHB) was 1. The “MIC, Control” value ([5]; no added salts, unit not given) was 1.
